In US11844795B2, “Combination therapy for cancer treatment” (Ipsen Biopharm Ltd., priority 2015, dated 2023):
Like-named read-outs stand apart in the source and are kept apart here.

What was measured:
PARP 1 = PARP 1 (Homo sapiens, UniProt P09874); details: cell-free assay; cited from earlier work
PARP-DNA complexes = details: compared with veliparib; cited from earlier work
HCC1806 = assay: Cell survival (CellTiter-Glo) after SN-38 and/or PARP inhibitor; type: cell-based; details: Exp. 1, single agent
Protocol: (§1) Cells were plated at 1000 cells/well and then incubated for 24 hours. […] The plates were then allowed to incubate for 72 hours period. After the 72 hour incubation period the media was removed and cell viability was determined using the CellTiter-Glo® cell viability assay (Promega, Madison Wis.) according to the product instructions.

BT549 = assay: as above; type: cell-based; details: for IC50: Homo sapiens
Protocol: as §1

HCC1187 = assay: as above; type: cell-based; details: for IC50: Homo sapiens
Protocol: as §1

HCC38 = assay: as above; type: cell-based; details: for IC50: Homo sapiens
Protocol: as §1

SUM159PT = assay: as above; type: cell-based; details: for IC50: Homo sapiens, SUM-159-PT
Protocol: as §1

BT20 = assay: as above; type: cell-based; details: for IC50: Homo sapiens
Protocol: as §1

PAR = details: Table 2B, unit inferred; cited from earlier work
[1] = system: DMS-114 small cell lung cancer cells; assay: % cell number over time, SN-38 with PARP inhibitors; type: cell-based; details: SN-38 at 2 nM; DMS-114 SCLC cells
[2] = system: NCI-H1048 small cell lung cancer cells; assay: as above; type: cell-based; details: SN-38 at 2 nM; NCI-H1048 SCLC cells
[3] = system: small cell lung cancer (SCLC), pancreatic cancer and breast cancer cell lines; assay: Growth inhibition, SN-38 with PARP inhibitors; type: cell-based; details: for growth inhibition of the cancer cells in combination with SN-38: 2 nM SN-38
[4] = system: CFPAC-1 pancreatic cancer cells; assay: % cell number over time, SN-38 with PARP inhibitors; type: cell-based; details: SN-38 at 2 nM
SUM149PT = assay: Cell survival (CellTiter-Glo) after SN-38 and/or PARP inhibitor; type: cell-based; details: for IC50: Homo sapiens
Protocol: as §1

tankyrase-1 = tankyrase-1 (Homo sapiens, UniProt O95271); details: cell-free assays; cited from earlier work
tankyrase-1, sequence (O95271 whole entry, species assumed): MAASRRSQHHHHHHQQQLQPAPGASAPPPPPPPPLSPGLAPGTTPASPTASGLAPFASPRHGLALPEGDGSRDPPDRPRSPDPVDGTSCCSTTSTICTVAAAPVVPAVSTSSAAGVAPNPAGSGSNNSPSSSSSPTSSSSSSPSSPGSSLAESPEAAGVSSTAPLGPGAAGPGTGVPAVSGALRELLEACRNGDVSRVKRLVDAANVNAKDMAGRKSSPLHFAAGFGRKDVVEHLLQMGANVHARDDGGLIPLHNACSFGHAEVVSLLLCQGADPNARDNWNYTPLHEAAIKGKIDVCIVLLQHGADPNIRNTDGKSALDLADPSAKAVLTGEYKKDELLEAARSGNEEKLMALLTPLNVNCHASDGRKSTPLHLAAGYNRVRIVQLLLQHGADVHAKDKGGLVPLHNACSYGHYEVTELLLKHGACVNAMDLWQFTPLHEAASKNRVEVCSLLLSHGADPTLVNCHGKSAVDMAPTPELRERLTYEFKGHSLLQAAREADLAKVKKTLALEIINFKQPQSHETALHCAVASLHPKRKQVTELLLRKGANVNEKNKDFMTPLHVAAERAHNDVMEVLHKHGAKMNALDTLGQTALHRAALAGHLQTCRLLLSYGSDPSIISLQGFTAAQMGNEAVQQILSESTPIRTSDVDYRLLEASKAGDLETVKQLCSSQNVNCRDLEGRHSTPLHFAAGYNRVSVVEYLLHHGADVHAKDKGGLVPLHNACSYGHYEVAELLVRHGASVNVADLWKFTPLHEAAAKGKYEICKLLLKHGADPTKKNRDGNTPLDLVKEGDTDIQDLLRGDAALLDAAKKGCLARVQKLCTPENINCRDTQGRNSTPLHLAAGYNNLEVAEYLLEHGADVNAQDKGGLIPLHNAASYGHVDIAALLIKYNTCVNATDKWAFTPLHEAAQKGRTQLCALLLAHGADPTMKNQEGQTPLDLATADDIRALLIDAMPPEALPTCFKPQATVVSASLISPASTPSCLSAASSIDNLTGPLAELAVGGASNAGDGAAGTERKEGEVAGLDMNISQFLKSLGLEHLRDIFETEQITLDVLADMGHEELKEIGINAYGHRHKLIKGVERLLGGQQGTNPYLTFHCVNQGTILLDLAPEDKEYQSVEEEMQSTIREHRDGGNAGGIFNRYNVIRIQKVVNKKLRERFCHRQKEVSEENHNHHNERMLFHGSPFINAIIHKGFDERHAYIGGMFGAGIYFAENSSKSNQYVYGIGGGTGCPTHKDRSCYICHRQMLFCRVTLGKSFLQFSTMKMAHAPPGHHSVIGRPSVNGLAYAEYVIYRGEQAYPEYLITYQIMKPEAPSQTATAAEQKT

cancer cells = assay: Active range based on XTC008
HCC1954 = assay: Cell survival (CellTiter-Glo) after SN-38 and/or PARP inhibitor; type: cell-based; details: for IC50: Homo sapiens
Protocol: as §1

[5] = system: C33A cervical cancer xenograft; assay: C33A cervical cancer xenograft model
[6] = system: HT-29 colorectal cancer (CRC) tumor xenograft; assay: Tumor SN-38 and tumor response in HT-29 xenograft-bearing mice; type: in vivo
Protocol: The duration of tumor exposure to the topoisomerase 1 inhibitor SN-38 above a threshold minimum concentration (e.g., 120 nM) correlated with antitumor activity of the liposomal irinotecan. […] For example, FIG. 13B depicts tumor content of SN-38 in multiple murine cervical cancer models. […] Levels of SN-38 of 120 nM were identified as the SN-38 tumor concentration required to yield tumor response.

human plasma proteins = details: cited from earlier work
HCC70 = assay: Cell survival (CellTiter-Glo) after SN-38 and/or PARP inhibitor; type: cell-based; details: Exp. 2, single agent
Protocol: as §1

SKBR3 = assay: as above; type: cell-based; details: Exp. 4, single agent
Protocol: as §1

HT-29 = assay: In vitro SN-38 effect on cell line (GI50); type: cell-based; details: HT-29, in vitro
PARG = PARG (Homo sapiens, UniProt Q86W56); details: cited from earlier work
PARG, sequence (Q86W56 whole entry, species assumed): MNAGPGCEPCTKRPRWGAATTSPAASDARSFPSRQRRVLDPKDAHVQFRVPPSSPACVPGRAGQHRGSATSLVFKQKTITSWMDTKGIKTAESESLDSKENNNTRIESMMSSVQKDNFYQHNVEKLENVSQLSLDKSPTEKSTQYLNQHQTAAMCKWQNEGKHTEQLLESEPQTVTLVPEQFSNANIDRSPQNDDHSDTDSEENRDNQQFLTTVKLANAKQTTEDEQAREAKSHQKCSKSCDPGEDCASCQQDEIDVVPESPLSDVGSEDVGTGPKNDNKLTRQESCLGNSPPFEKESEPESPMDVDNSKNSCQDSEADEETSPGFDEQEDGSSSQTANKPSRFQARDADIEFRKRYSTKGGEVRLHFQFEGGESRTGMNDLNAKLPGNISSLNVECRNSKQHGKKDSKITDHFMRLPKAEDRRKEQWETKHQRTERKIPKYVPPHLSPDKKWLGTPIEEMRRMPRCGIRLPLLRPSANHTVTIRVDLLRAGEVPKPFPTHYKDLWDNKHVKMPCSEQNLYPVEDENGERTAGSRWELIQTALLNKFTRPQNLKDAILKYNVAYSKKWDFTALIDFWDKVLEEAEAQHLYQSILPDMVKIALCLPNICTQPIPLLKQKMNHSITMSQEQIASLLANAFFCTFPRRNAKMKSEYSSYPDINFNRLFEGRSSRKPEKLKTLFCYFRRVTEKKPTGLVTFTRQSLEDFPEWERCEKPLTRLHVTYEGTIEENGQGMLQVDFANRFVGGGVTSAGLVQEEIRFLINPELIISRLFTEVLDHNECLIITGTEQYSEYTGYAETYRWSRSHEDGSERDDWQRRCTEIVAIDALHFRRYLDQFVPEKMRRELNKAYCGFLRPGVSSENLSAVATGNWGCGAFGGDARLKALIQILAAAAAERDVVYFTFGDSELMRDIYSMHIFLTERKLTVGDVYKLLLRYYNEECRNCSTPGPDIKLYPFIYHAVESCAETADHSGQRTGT

SIRT2 = SIRT2 (Homo sapiens, UniProt Q8IXJ6); details: cited from earlier work
SIRT2, sequence (Q8IXJ6 whole entry, species assumed): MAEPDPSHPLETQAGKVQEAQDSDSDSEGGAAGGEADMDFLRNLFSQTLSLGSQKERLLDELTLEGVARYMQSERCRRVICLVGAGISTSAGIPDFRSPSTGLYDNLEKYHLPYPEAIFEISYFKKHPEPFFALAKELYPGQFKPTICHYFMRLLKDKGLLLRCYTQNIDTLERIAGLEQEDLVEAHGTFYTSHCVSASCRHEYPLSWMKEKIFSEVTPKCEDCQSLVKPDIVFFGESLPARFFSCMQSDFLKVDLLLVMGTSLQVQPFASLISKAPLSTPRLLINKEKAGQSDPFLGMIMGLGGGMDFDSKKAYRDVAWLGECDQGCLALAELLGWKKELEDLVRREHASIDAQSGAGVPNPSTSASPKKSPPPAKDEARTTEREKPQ

[7] = system: MS751 cervical cancer xenograft; assay: MS751 cervical cancer xenograft model; details: MM-398 5 mg/kg weekly Day 1; veliparib 50 mg/kg orally Days 4-6; FIG. 7A
[8] = HCC1187, read-out: IC50 log10 (μM) (converted)
[9] = read-out: IC50 log10 (μM) (converted)
[10] = BT-20, read-out: IC50 log10 (μM) (converted)

PARP 1, sequence (P09874 whole entry, species assumed): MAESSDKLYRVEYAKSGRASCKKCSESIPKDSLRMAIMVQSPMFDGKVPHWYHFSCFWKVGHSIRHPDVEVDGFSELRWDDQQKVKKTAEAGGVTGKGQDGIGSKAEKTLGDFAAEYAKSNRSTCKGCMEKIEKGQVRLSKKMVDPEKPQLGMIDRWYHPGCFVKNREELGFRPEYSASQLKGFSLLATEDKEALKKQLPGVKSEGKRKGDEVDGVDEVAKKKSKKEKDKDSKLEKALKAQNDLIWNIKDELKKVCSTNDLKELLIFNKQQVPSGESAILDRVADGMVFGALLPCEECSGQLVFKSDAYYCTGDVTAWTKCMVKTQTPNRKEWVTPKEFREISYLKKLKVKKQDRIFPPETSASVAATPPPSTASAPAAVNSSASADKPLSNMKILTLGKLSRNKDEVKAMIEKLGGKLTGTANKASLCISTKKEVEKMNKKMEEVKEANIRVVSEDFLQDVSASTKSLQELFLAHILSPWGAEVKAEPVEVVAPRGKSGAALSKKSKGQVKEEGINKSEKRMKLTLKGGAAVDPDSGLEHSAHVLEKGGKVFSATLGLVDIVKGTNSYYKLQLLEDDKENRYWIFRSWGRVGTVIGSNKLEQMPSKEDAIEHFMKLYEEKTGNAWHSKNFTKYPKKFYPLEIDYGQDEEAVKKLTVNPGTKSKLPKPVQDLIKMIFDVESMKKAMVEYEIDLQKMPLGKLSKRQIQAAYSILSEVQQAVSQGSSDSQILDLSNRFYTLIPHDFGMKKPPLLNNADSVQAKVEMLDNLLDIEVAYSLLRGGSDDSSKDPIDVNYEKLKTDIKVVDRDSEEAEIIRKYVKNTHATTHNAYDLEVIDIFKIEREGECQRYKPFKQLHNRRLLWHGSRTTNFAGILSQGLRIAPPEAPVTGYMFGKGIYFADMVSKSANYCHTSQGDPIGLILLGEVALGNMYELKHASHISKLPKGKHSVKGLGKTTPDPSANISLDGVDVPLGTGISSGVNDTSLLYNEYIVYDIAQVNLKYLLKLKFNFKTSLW

## CN(C)Cc1ccc(-c2nc3cccc4c3n2CCNC4=O)cc1 [AG-14361]
PARP 1
  Ki: < 0.005 µM

## NC(=O)c1cccc2cn(-c3ccc([C@@H]4CCCNC4)cc3)nc12 [Niraparib]
PARP-DNA complexes
  potency at PARP trapping: much more potent at PARP trapping than veliparib
HCC1806
  Maximum Kill Percent: 100%
HCC1806; Homo sapiens, read-out: IC50 log10 (converted)
  IC50: 18.6 µM
BT549; BT549, Exp. 1, single agent
  Maximum Kill Percent: 100%
BT549; BT-549, BT549, Exp. 1, single agent, read-out: IC50 log10 (converted)
  IC50: 107 µM
HCC1187; HCC1187, Exp. 1, single agent
  Maximum Kill Percent: 98%
HCC1187; HCC1187, Exp. 1, single agent, read-out: IC50 log10 (converted)
  IC50: 129 µM
HCC38; HCC38, Exp. 1, single agent
  Maximum Kill Percent: 100%
HCC38; HCC38, Exp. 1, single agent, read-out: IC50 log10 (converted)
  IC50: 17 µM
SUM159PT; SUM159PT, Exp. 1, single agent, read-out: IC50 log10 (converted)
  IC50: 2.24 µM
SUM159PT; SUM159PT, Exp. 1, single agent
  Maximum Kill Percent: 97%
BT20; BT20, Exp. 1, single agent
  Maximum Kill Percent: 100%
BT20; BT-20, BT20, Exp. 1, single agent, read-out: IC50 log10 (converted)
  IC50: 138 µM

## O=C(c1cc(Cc2n[nH]c(=O)c3ccccc23)ccc1F)N1CCN(C(=O)C2CC2)CC1 [Olaparib]
PAR
  EC50: 0.0036 µM
[1]
  effect of combination with SN-38: Additive/synergistic effects
[2]
  sensitivity of cells to combination with SN-38: very sensitive
Estimated tumor range
  Estimated tumor range: 8 µM
[3]
  growth inhibition of the cancer cells in combination with SN-38: additive/synergistic growth inhibition
[4]
  effect of combination with SN-38: Additive/synergistic effects
BT549; BT-549, read-out: IC50 log10 (μM) (converted)
  IC50: 110 µM
HCC1187; [8]
  IC50: 257 µM
SUM159PT; [9]
  IC50: 1.51 µM
SUM149PT; [9]
  IC50: 251 µM
BT20; [10]
  IC50: 17.4 µM
tankyrase-1
  less effective against tankyrase-1 than against PARP 1/2: 300 times

## CNCc1ccc(-c2[nH]c3cc(F)cc4c3c2CCNC4=O)cc1 [Rucaparib]
PAR
  EC50: 0.0047 µM
[1]
  effect of combination with SN-38: Additive/synergistic effects
[2]
  sensitivity of cells to combination with SN-38: very sensitive
Estimated tumor range
  Estimated tumor range: <6 µM
Cancer cells; (Panc)
  Active Range based on XTC008: 1 to 100 nM
[3]
  growth inhibition of the cancer cells in combination with SN-38: additive/synergistic growth inhibition
[4]
  effect of combination with SN-38: Additive/synergistic effects
BT549; BT549, Exp. 3, single agent
  Maximum Kill Percent: 100%
BT549; BT-549, BT549, Exp. 3, single agent, read-out: IC50 log10 (converted)
  IC50: 56.2 µM
HCC1954; HCC1954, Exp. 3, single agent
  Maximum Kill Percent: 100%
HCC1954; HCC1954, Exp. 3, single agent, read-out: IC50 log10 (converted)
  IC50: 39.8 µM
HCC38; HCC38, Exp. 3, single agent
  Maximum Kill Percent: 87%
HCC38; HCC38, Exp. 3, single agent, read-out: IC50 log10 (converted)
  IC50: 0.851 µM
SUM159PT; SUM159PT, Exp. 3, single agent, read-out: IC50 log10 (converted)
  IC50: 0.851 µM
SUM159PT; SUM159PT, Exp. 3, single agent
  Maximum Kill Percent: 97%
SUM149PT; Exp. 3, single agent
  Maximum Kill Percent: 99%
SUM149PT; Exp. 3, single agent, read-out: IC50 log10 (converted)
  IC50: 47.9 µM
BT20; BT20, Exp. 3, single agent
  Maximum Kill Percent: 100%
BT20; BT-20, BT20, Exp. 3, single agent, read-out: IC50 log10 (converted)
  IC50: 18.6 µM

## CCc1c2c(nc3ccc(O)cc13)-c1cc3c(c(=O)n1C2)COC(=O)[C@]3(O)CC [SN-38]
[5]; liver, spleen, colon, plasma versus tumors
  differential tissue levels at 24 and 72 hours: cleared faster from the liver, spleen, colon, and plasma, than from tumors
Estimated tumor range; (398)
  Estimated tumor range: 0.003 to 0.163 µM
Estimated tumor range; IRI
  Estimated tumor range: IRI < 200 nM
[6]
  SN-38 tumor concentration required to yield tumor response: 120 nM
Human plasma proteins
  plasma protein binding: approximately 95%
Cancer cells
  Active Range based on XTC008: 1 to 50 nM
HCC1806
  IC50 log10 (μM): −2.08 log10 (μM)
  Maximum Kill Percent: 93%
BT549; BT549, Exp. 1, single agent
  IC50 log10 (μM): −0.10 log10 (μM)
  Maximum Kill Percent: 95%
BT549; BT549, Exp. 2, single agent
  IC50 log10 (μM): −0.04 log10 (μM)
  Maximum Kill Percent: 93%
BT549; BT549, Exp. 3, single agent
  IC50 log10 (μM): −0.05 log10 (μM)
  Maximum Kill Percent: 94%
HCC1187; HCC1187, Exp. 1, single agent
  IC50 log10 (μM): −0.68 log10 (μM)
  Maximum Kill Percent: 90%
HCC1187; HCC1187, Exp. 2, single agent
  IC50 log10 (μM): −0.64 log10 (μM)
  Maximum Kill Percent: 100%
HCC1187; HCC1187, Exp. 4, single agent
  IC50 log10 (μM): −0.98 log10 (μM)
  Maximum Kill Percent: 88%
HCC1954; HCC1954, Exp. 3, single agent
  IC50 log10 (μM): −0.97 log10 (μM)
  Maximum Kill Percent: 94%
HCC1954; HCC1954, Exp. 4, single agent
  IC50 log10 (μM): −0.65 log10 (μM)
  Maximum Kill Percent: 100%
HCC38; HCC38, Exp. 1, single agent
  IC50 log10 (μM): −2.80 log10 (μM)
  Maximum Kill Percent: 96%
HCC38; HCC38, Exp. 3, single agent
  IC50 log10 (μM): −2.89 log10 (μM)
  Maximum Kill Percent: 92%
HCC38; HCC38, Exp. 4, single agent
  IC50 log10 (μM): −2.75 log10 (μM)
  Maximum Kill Percent: 92%
SUM159PT; SUM159PT, Exp. 1, single agent
  IC50 log10 (μM): −2.35 log10 (μM)
  Maximum Kill Percent: 97%
SUM159PT; SUM159PT, Exp. 2, single agent
  IC50 log10 (μM): −2.39 log10 (μM)
  Maximum Kill Percent: 97%
SUM159PT; SUM159PT, Exp. 3, single agent
  IC50 log10 (μM): −2.66 log10 (μM)
  Maximum Kill Percent: 99%
SUM159PT; SUM159PT, Exp. 4, single agent
  IC50 log10 (μM): −2.33 log10 (μM)
  Maximum Kill Percent: 96%
SUM149PT; Exp. 2, single agent
  IC50 log10 (μM): 0.24 log10 (μM)
  Maximum Kill Percent: 96%
SUM149PT; Exp. 3, single agent
  IC50 log10 (μM): 0.27 log10 (μM)
  Maximum Kill Percent: 95%
HCC70
  IC50 log10 (μM): −0.07 log10 (μM)
  Maximum Kill Percent: 97%
SKBR3
  IC50 log10 (μM): −1.38 log10 (μM)
  Maximum Kill Percent: 88%
BT20; BT20, Exp. 1, single agent
  IC50 log10 (μM): −0.18 log10 (μM)
  Maximum Kill Percent: 100%
BT20; BT20, Exp. 2, single agent
  IC50 log10 (μM): −0.69 log10 (μM)
  Maximum Kill Percent: 100%
BT20; BT20, Exp. 3, single agent
  IC50 log10 (μM): −0.37 log10 (μM)
  Maximum Kill Percent: 100%
BT20; BT20, Exp. 4, single agent
  IC50 log10 (μM): −0.24 log10 (μM)
  Maximum Kill Percent: 100%
HT-29
  GI50: ~0.06 µM

## Cn1ncnc1[C@H]1c2n[nH]c(=O)c3cc(F)cc(c23)N[C@@H]1c1ccc(F)cc1 [Talazoparib]
PAR
  EC50: 0.0025 µM
PARG
  inhibition of PARG: does not inhibit
HCC1187; [8]
  IC50: 191 µM
HCC1954; HCC1954, Exp. 4, single agent
  Maximum Kill Percent: 100%
HCC1954; HCC1954, read-out: IC50 log10 (μM) (converted)
  IC50: 4370 µM
HCC38; HCC38, Exp. 4, single agent
  Maximum Kill Percent: 92%
HCC38; HCC38, read-out: IC50 log10 (μM) (converted)
  IC50: 0.0589 µM
SUM159PT; [9]
  IC50: 0.0933 µM
SUM159PT; SUM159PT, Exp. 4, single agent
  Maximum Kill Percent: 94%
BT20; BT20, Exp. 4, single agent
  Maximum Kill Percent: 100%
BT20; [10]
  IC50: 28.2 µM

## C[C@]1(c2nc3c(C(N)=O)cccc3[nH]2)CCCN1 [Veliparib]
[5]; MM-398 2 mg/kg weekly Day 1, veliparib 50 mg/kg orally Days 4-6, FIG. 7B
  efficacy (tumor growth): neither MM-398 or veliparib were efficacious as single agents
PAR
  EC50: 0.0059 µM
[1]
  effect of combination with SN-38: Additive/synergistic effects
Estimated tumor range
  Estimated tumor range: >2 µM
SIRT2
  activity on SIRT2: inactive
[7]
  efficacy (tumor growth): not efficacious
Cancer cells
  Active Range based on XTC008: 1000 to 10000 nM
[3]
  growth inhibition of the cancer cells in combination with SN-38: additive/synergistic growth inhibition
[3]; compared with olaparib and rucaparib
  potency in the combination with SN-38: slightly less potent in the combination with SN-38 than olaparib and rucaparib
[4]
  effect of combination with SN-38: Additive/synergistic effects
